# Marks after values point to notes of the source that are not given here.
# Assays:
# [1] = DPPH radical scavenging activity; format: biochemical; settings: mean ± SD, triplicate
# Procedure: All chemicals for the antioxidant activity test were purchased from Sigma Aldrich. All measurements were conducted in triplicate, and a Shimadzu UV-1800 spectrophotometer was used for all measurements during antioxidant activity experiments. The IC50 value was used for comparing different radical scavenging effects between investigated extracts, isolated compounds, and positive controls. […] [71] with certain modifications. […] The solution was prepared ex tempore and stored in a tinted bottle in the refrigerator until the experiments were performed. […] The reaction mixture was vortexed and allowed to incubate in the dark for one hour, after which the absorbance was measured at 517 nm relative to the blank. […] Ac stands for absorbance of the control (which contains all reagents, except the tested extract or compound), and As is the absorbance of the sample.
# [2] = Hydroxyl radical scavenging activity (2-deoxyribose); format: biochemical; settings: mean ± SD, triplicate
# Procedure: All chemicals for the antioxidant activity test were purchased from Sigma Aldrich. All measurements were conducted in triplicate, and a Shimadzu UV-1800 spectrophotometer was used for all measurements during antioxidant activity experiments. The IC50 value was used for comparing different radical scavenging effects between investigated extracts, isolated compounds, and positive controls. The ability to inhibit non-site-specific peroxidation mediated by hydroxyl radicals for […], and XSH was determined using the method previously described in the literature. During the experiment, in a reaction mixture that contained 500 μL of 5.6 mM 2-deoxy-D-ribose in KH2PO4-NaOH buffer (50 mM, pH 7.4), 100 μL of 1.0 mM aqueous ascorbic acid, 100 μL of 1.0 mM H2O2, and 200 μL of premixed solution of 100 μM FeCl3 and […] EDTA (1:1 v/v), 100 μL of extract dissolved in water was added. The tubes were vigorously shaken, vortexed, and incubated for 30 min at 50 °C. […] The mixture was vortexed again and heated in a water bath for 30 min at 50 °C. […] Ac stands for absorbance of the control (which contains all reagents, except the tested extract or compound), and As is the absorbance of the sample.
# [3] = Superoxide anion radical scavenging activity (NBT/NADH/PMS); format: biochemical; settings: mean ± SD, triplicate
# Procedure: All chemicals for the antioxidant activity test were purchased from Sigma Aldrich. All measurements were conducted in triplicate, and a Shimadzu UV-1800 spectrophotometer was used for all measurements during antioxidant activity experiments. The IC50 value was used for comparing different radical scavenging effects between investigated extracts, isolated compounds, and positive controls. […] [75] with modifications. […] To initiate the reaction, 0.1 mL of phenazine methosulfate (PMS) solution ([…] in 0.1 M phosphate buffer at pH 7.4) was added to each tube. The mixture was incubated at room temperature for 5 min, and then the absorbance was measured at 560 nm relative to the blank. Ascorbic acid, gallic acid, and Trolox were used as positive controls, and a decrease in absorbance indicated increased superoxide anion radical scavenging activity. […] Ac stands for absorbance of the control (which contains all reagents, except the tested extract or compound), and As is the absorbance of the sample.
# [4] = system: S. cerevisiae (isolate); experiment: Microdilution with resazurin, antifungal; format: cell-based, Saccharomyces cerevisiae; settings: extracts and usnic acid
# Procedure: (§1) The tested methanol, acetone, and n-hexane extracts, as well as the component (usnic acid) of X. stenophylla, were dissolved in 10% dimethyl sulfoxide (DMSO) and then diluted into the nutrient liquid medium. DMSO was obtained from Acros Organics (Fair Lawn, NJ, USA). Resazurin was obtained from Alfa Aesar GmbH & Co. (KG, Karlsruhe, Germany).
# (§2) The antimicrobial activity of the extracts and components was tested against 19 microorganisms. The experiment involved 15 strains of bacteria (i.e., 6 standard strains: Staphylococcus aureus ATCC 6538, Bacillus subtilis ATCC 6633, Proteus mirabilis ATCC 12453, Pseudomonas aeruginosa ATCC 27853, Klebsiella pneumoniae ATCC 70063, and Escherichia coli ATCC 25922; 9 isolates: Staphylococcus aureus, Escherichia coli, Salmonella enterica, Salmonella Typhimurium, Proteus mirabilis, Klebsiella pneumoniae, Pseudomonas aeruginosa, Bacillus subtilis, and Bacillus cereus). In addition, four fungal strains (i.e., two standard strains: Candida albicans ATCC 10231 and Aspergillus niger ATCC 16888; two isolates: Saccharomyces cerevisiae and Candida albicans) were tested. All isolates were a generous gift from the Institute of Public Health, Kragujevac. The other microorganisms were provided from the collection held by the Microbiology Laboratory Faculty of Science, University of Kragujevac.
# (§3) The bacterial suspensions were prepared by the direct colony method. The turbidity of the initial suspension was adjusted using a densitometer (DEN-1, BioSan, Riga, Latvia). When adjusted to the turbidity of the 0.5 McFarland’s standard (Andrews, 2005) the bacteria suspension contained approximately 10^8 colony-forming units (CFU)/mL, and the suspension of yeast contained 10^6 CFU/mL; 1:100 dilutions of the initial suspension were additionally prepared in sterile 0.85% saline. The suspensions of fungal spores were prepared by gentle stripping of spores from slopes with growing mycelia. The resulting suspensions were 1:1000 diluted in sterile 0.85% saline.
# Antimicrobial activity was tested by determining the minimum inhibitory concentrations (MICs) and minimum microbicidal concentrations (MBCs) using the microdilution plate method with resazurin [56]. The 96-well plates were prepared by dispensing 100 μL of Mueller–Hinton broth for bacteria and Sabouard broth for fungi into each well. A 10 μL aliquot from the stock solution of the tested extract or component was added to the first row of the plate. Then, two-fold serial dilutions were performed using a multichannel pipette. The obtained concentration range was from 10 to 0.08 mg/mL. The method is described in detail in [76]. […]
# Minimum microbicidal concentrations were determined by plating 10 μL of samples from wells where no indicator color change or no mycelia growth was recorded on a nutrient agar medium. […]
# [5] = system: A. niger ATCC 16888; experiment: Microdilution with resazurin, antifungal; format: cell-based, Aspergillus niger; settings: extracts and usnic acid
# Procedure: as §1, §2, §3
# Antimicrobial activity was tested by determining the minimum inhibitory concentrations (MICs) and minimum microbicidal concentrations (MBCs) using the microdilution plate method with resazurin [56]. The 96-well plates were prepared by dispensing 100 μL of Mueller–Hinton broth for bacteria and Sabouard broth for fungi into each well. A 10 μL aliquot from the stock solution of the tested extract or component was added to the first row of the plate. Then, two-fold serial dilutions were performed using a multichannel pipette. The obtained concentration range was from 10 to 0.08 mg/mL. The method is described in detail in [76].
# Each test included growth control and sterility control.
# Minimum microbicidal concentrations were determined by plating 10 μL of samples from wells where no indicator color change or no mycelia growth was recorded on a nutrient agar medium. At the end of the incubation period, the lowest concentration with no growth (no colony) was defined as the minimum microbicidal concentration.
# [6] = system: MRC-5 cells (nontransformed human lung fibroblast); experiment: MTT assay; format: cell-based
# [7] = system: HCT 116 cells (colon cancer); experiment: MTT assay; format: cell-based, human
substance,measurement,setting,value
usnic acid,DPPH Radical Scavenging Activity (IC50),[1],"64.92 ± 1.06 ^a,b,c,d µg/mL"
same,Hydroxyl Radical Scavenging Activity (IC50),[2],"120.05 ± 0.85 ^a,b,c,d µg/mL"
same,Superoxide Anion Radical Scavenging Activity (IC50),[3],"90.32 ± 0.95 ^a,b,c,d µg/mL"
same,MFC,[4],10000 µg/mL
same,MIC,[4],5000 µg/mL
same,MFC,[5],<10000 µg/mL
same,MIC,[5],10000 µg/mL
same,GI50 (50% growth inhibition),"[6]; MRC-5, 24 h",42.97 ± 1.56 µg/mL
same,IC50,"[6]; MRC-5, 24 h",66.18 ± 1.72 µg/mL
same,TGI (total growth inhibition),"[6]; MRC-5, 24 h",>100 µg/mL
same,GI50 (50% growth inhibition),"[6]; MRC-5, 48 h",41.31 ± 0.56 µg/mL
same,IC50,"[6]; MRC-5, 48 h",78.54 ± 0.87 µg/mL
same,TGI (total growth inhibition),"[6]; MRC-5, 48 h",93.25 ± 0.08 µg/mL
same,GI50 (50% growth inhibition),"[6]; MRC-5, 72 h",36.73 ± 0.92 µg/mL
same,IC50,"[6]; MRC-5, 72 h",53.14 ± 1.04 µg/mL
same,TGI (total growth inhibition),"[6]; MRC-5, 72 h",89.15 ± 0.25 µg/mL
same,GI50 (50% growth inhibition),"[7]; HCT 116, 24 h",41.94 ± 3.12 µg/mL
same,IC50,"[7]; HCT 116, 24 h",>100 µg/mL
same,TGI (total growth inhibition),"[7]; HCT 116, 24 h",79.12 ± 1.18 µg/mL
same,GI50 (50% growth inhibition),"[7]; HCT 116, 48 h",27.21 ± 1.94 µg/mL
same,IC50,"[7]; HCT 116, 48 h",83.99 ± 4.22 µg/mL
same,TGI (total growth inhibition),"[7]; HCT 116, 48 h",63.58 ± 0.90 µg/mL
same,GI50 (50% growth inhibition),"[7]; HCT 116, 72 h",15.87 ± 2.89 µg/mL
same,IC50,"[7]; HCT 116, 72 h",23.79 ± 2.10 µg/mL
same,TGI (total growth inhibition),"[7]; HCT 116, 72 h",64.91 ± 1.44 µg/mL

# From article PMC9269301, “Phytochemical Analysis, Antioxidant, Antimicrobial, and Cytotoxic Activity of Different Extracts of Xanthoparmelia stenophylla Lichen from Stara Planina, Serbia” (Plants, 2022)
